ChEMBL document CHEMBL1201862, “PubChem BioAssay data set” (2004)
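Where inhibition never reached the appropriate level, the endpoint shown equals the highest concentration tested. Otherwise, values were interpolated linearly from a five-concentration, 48-hour dose response in 96-well plates. Abbreviation: GI50, concentration required for 50% inhibition of growth.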 The source made the active and inactive calls. No stated cut-off is given here; in the data, active = GI50 up to about 1.1 µM and inactive = higher.

Tests used:
Assay in all cases: inhibition of tumour cell growth, NCI panel, 48 h
[1] = tested on: HCC 2998
[2] = tested on: SR
[3] = tested on: SF-295
[4] = tested on: SNB-75
[5] = tested on: UACC-62
[6] = tested on: NCI-H23
[7] = tested on: Malme-3M
[8] = tested on: NCI/ADR-RES
[9] = tested on: EKVX
[10] = tested on: LOX IMVI
[11] = tested on: M14
[12] = tested on: OVCAR-3
[13] = tested on: IGROV-1
[14] = tested on: SN12C
[15] = tested on: A549
[16] = tested on: MDA-MB-435
[17] = tested on: NCI-H522
[18] = tested on: SF-539
[19] = tested on: SF-268
[20] = tested on: HOP-92

Measured: GI50

O=C(O)CC(NC(=O)/C(=C/c1ccccc1O)NC(=O)c1ccccc1)C(=O)O (stereo not given)
inactive: [1] > 100 µM | [2] 29.8 µM | [3] > 100 µM | [4] 88.1 µM | [5] 42.5 µM | [6] > 100 µM | [7] 61.7 µM | [8] > 100 µM | [9] 83.9 µM | [10] > 100 µM | [11] > 100 µM | [12] > 100 µM | [13] 58.9 µM | [14] > 100 µM | [15] > 100 µM | [16] 85.9 µM | [17] 65.5 µM | [18] > 100 µM

COc1cc2c(c(OC)c1OC)C(=O)[C@H]1OC(=O)N[C@@H]21
inactive: [1] > 100 µM | [2] > 100 µM | [3] > 100 µM | [4] > 100 µM | [5] > 100 µM | [6] > 100 µM | [19] > 100 µM | [8] > 100 µM | [10] > 100 µM | [11] > 100 µM | [12] > 100 µM | [20] > 100 µM | [14] > 100 µM | [15] > 100 µM | [16] > 100 µM | [18] > 100 µM

CCC(C)(C)C1CCC2c3c([nH]c4ccccc34)C3C(=O)N(c4ccc(OC)cc4)C(=O)C3C2C1 (stereo not given)
inactive: [1] 5.77 µM | [2] 39.8 µM | [3] 20.8 µM | [4] 16.2 µM | [5] 54.7 µM | [6] 10.5 µM | [7] 19.4 µM | [19] 15 µM | [8] 15.6 µM | [9] 35.4 µM | [10] 6.81 µM | [11] 18.8 µM | [12] 2.19 µM | [13] 15.7 µM | [14] 2.42 µM | [15] 13.4 µM | [16] 11 µM | [17] 7.16 µM | [18] 12.4 µM

CC(=O)C(C(=O)c1ccc(C)cc1)[C@@H]1OC(C)(C)O[C@@H]1[C@H]1COC(C)(C)O1 (stereo not given in full)
inactive: [1] 25.1 µM | [3] 37.7 µM | [4] 13.4 µM | [5] 10.9 µM | [6] 9.53 µM | [7] 15.9 µM | [19] 9.23 µM | [8] 9.93 µM | [9] 23.9 µM | [10] 6.43 µM | [11] 11.3 µM | [12] 7.66 µM | [20] 35.2 µM | [13] 12.7 µM | [14] 3.97 µM | [15] 19.6 µM | [16] 9.75 µM | [17] 4.89 µM | [18] 5.79 µM

Nc1ccccc1.O=C(O)C(C(F)(F)F)C(F)(F)F
inactive: [2] > 100 µM | [3] > 100 µM | [4] > 100 µM | [5] 68.5 µM | [6] > 100 µM | [7] > 100 µM | [19] > 100 µM | [8] > 100 µM | [9] > 100 µM | [10] > 100 µM | [11] > 100 µM | [12] > 100 µM | [20] > 100 µM | [13] > 100 µM | [14] > 100 µM | [15] > 100 µM | [16] > 100 µM | [17] > 100 µM | [18] > 100 µM

C[n+]1c(-c2ccc(/C=N/N=C/c3ccc(-c4cn5ccccc5[n+]4C)cc3)cc2)cn2ccccc21
inactive: [1] > 100 µM | [2] > 100 µM | [3] > 100 µM | [4] > 100 µM | [19] > 100 µM | [8] > 100 µM | [9] > 100 µM | [11] > 100 µM | [13] > 100 µM | [14] > 100 µM | [15] > 100 µM | [16] > 100 µM | [17] > 100 µM | [18] > 100 µM
